ChEMBL document CHEMBL4190351, “Synthesis and biological evaluation of novel 6,11-dihydro-5H-benzo[e]pyrimido- [5,4-b][1,4]diazepine derivatives as potential c-Met inhibitors” (Eur J Med Chem, 2017)

Experiments:
[1] = tested on: PC-3; assay: Cytotoxicity in human PC3 cells incubated for 72 hrs by sulforhodamine B assay; settings: PC-3, 72 h
[2] = tested on: PANC-1; assay: Cytotoxicity in human PANC1 cells incubated for 72 hrs by sulforhodamine B assay; settings: PANC-1, 72 h
[3] = tested on: HepG2; assay: Cytotoxicity in human HepG2 cells incubated for 72 hrs by sulforhodamine B assay; settings: HepG2, 72 h
[4] = tested on: CAKI-1; assay: Cytotoxicity in human Caki1 cells incubated for 72 hrs by sulforhodamine B assay; settings: CAKI-1, 72 h
[5] = molecular target: Hepatocyte growth factor receptor (Homo sapiens, UniProt P08581); assay: Inhibition of cMet (unknown origin) using poly(Glu, Tyr)4:1 substrate and ATP incubated fro 60 mins by ELISA
[6] = molecular target: Vascular endothelial growth factor receptor 2 (Homo sapiens, UniProt P35968); assay: Inhibition of VEGFR2 (unknown origin)
[7] = molecular target: Epidermal growth factor receptor (Homo sapiens, UniProt P00533); assay: Inhibition of EGFR (unknown origin)
[8] = molecular target: Proto-oncogene tyrosine-protein kinase receptor Ret (Homo sapiens, UniProt P07949); assay: Inhibition of RET (unknown origin)
[9] = molecular target: Mast/stem cell growth factor receptor Kit (Homo sapiens, UniProt P10721); assay: Inhibition of cKIT (unknown origin)
[10] = molecular target: T1, Receptor-type tyrosine-protein kinase FLT3 (Homo sapiens, UniProt P36888); assay: Inhibition of FLT3 (unknown origin)
T1 sequence (P36888 whole entry): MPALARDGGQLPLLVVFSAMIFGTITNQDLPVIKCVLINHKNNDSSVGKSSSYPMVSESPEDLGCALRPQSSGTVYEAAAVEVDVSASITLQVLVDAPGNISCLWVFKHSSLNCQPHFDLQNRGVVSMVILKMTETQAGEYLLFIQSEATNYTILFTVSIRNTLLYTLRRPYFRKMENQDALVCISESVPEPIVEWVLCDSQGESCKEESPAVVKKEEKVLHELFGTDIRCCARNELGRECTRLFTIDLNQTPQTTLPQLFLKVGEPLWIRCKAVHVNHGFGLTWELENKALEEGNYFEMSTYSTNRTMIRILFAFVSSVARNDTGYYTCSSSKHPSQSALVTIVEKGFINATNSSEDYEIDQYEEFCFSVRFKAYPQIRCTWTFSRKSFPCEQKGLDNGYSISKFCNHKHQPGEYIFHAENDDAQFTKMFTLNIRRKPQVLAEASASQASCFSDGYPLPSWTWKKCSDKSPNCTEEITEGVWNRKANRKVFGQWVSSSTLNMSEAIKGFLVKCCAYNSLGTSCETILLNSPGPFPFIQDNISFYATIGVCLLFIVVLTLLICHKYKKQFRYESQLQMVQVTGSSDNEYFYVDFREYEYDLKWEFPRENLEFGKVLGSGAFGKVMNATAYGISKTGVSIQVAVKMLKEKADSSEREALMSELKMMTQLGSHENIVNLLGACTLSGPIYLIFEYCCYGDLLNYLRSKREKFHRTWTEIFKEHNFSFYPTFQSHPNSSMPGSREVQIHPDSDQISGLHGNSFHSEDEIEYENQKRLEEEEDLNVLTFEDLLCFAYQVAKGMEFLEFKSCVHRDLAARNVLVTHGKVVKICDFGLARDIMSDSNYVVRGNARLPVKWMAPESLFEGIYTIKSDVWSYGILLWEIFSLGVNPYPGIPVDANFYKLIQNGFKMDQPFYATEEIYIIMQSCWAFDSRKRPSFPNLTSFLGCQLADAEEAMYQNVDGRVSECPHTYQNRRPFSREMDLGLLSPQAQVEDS

[11] = tested on: Mus musculus; assay: Toxicity in KM mouse assessed as mouse mortality at 620 mg/kg, po administered as single dose measured daily for 14 days; assay type: organism-based; settings: in vivo, 336 h
[12] = tested on: Mus musculus; assay: Toxicity in KM mouse assessed as mouse mortality at 520 mg/kg, po administered as single dose measured daily for 14 days; assay type: organism-based; settings: in vivo, 336 h
[13] = tested on: Mus musculus; assay: Toxicity in KM mouse assessed as mouse mortality at 420 mg/kg, po administered as single dose measured daily for 14 days; assay type: organism-based; settings: in vivo, 336 h
[14] = Toxicity in KM mouse assessed as mouse survival at 920 mg/kg, po administered as single dose measured daily for 14 days (reference value: 100%); assay type: organism-based; settings: in vivo
[15] = Toxicity in KM mouse assessed as mouse survival at 820 mg/kg, po administered as single dose measured daily for 14 days (reference value: 100%); assay type: organism-based; settings: in vivo
[16] = Toxicity in KM mouse assessed as mouse survival at 720 mg/kg, po administered as single dose measured daily for 14 days (reference value: 100%); assay type: organism-based; settings: in vivo
[17] = Toxicity in KM mouse assessed as mouse survival at 620 mg/kg, po administered as single dose measured daily for 14 days (reference value: 100%); assay type: organism-based; settings: in vivo
[18] = Toxicity in KM mouse assessed as mouse survival at 520 mg/kg, po administered as single dose measured daily for 14 days (reference value: 100%); assay type: organism-based; settings: in vivo
[19] = Toxicity in KM mouse assessed as mouse survival at 420 mg/kg, po administered as single dose measured daily for 14 days (reference value: 100%); assay type: organism-based; settings: in vivo
[20] = molecular target: Voltage-gated inwardly rectifying potassium channel KCNH2 (Homo sapiens, UniProt Q12809); assay: Inhibition of human ERG at holding potential of -80 mV by cell based automated Qpatch method
[21] = AUC (0 to t) in Sprague-Dawley rat at 20 mg/kg, po measured after 5 mins to 4 hrs post dose by LC-MS/MS method; assay type: ADME, organism-based; parameters: time 0.083-4 hr, dose 20 mg/kg, route oral; settings: in vivo
[22] = AUC (0 to t) in Sprague-Dawley rat at 4 mg/kg, iv measured after 5 mins to 4 hrs post dose by LC-MS/MS method; assay type: ADME, organism-based; parameters: time 0.083-4 hr, dose 4 mg/kg, route intravenous; settings: in vivo
[23] = AUC (0 to infinity) in Sprague-Dawley rat at 20 mg/kg, po measured after 5 mins to 4 hrs post dose by LC-MS/MS method; assay type: ADME, organism-based; parameters: dose 20 mg/kg, time infinity, route oral; settings: in vivo
[24] = AUC (0 to infinity) in Sprague-Dawley rat at 4 mg/kg, iv measured after 5 mins to 4 hrs post dose by LC-MS/MS method; assay type: ADME, organism-based; parameters: dose 4 mg/kg, time infinity, route intravenous; settings: in vivo
[25] = MRT (0 to t) in Sprague-Dawley rat at 20 mg/kg, po measured after 5 mins to 4 hrs post dose by LC-MS/MS method; assay type: ADME, organism-based; settings: in vivo
[26] = MRT (0 to t) in Sprague-Dawley rat at 4 mg/kg, iv measured after 5 mins to 4 hrs post dose by LC-MS/MS method; assay type: ADME, organism-based; settings: in vivo
[27] = Apparent volume of distribution during terminal phase in Sprague-Dawley rat at 20 mg/kg, po measured after 5 mins to 4 hrs post dose by LC-MS/MS method; assay type: ADME, organism-based; settings: in vivo, read-out: Vz/F
[28] = tested on: Rattus norvegicus; assay: Apparent volume of distribution during terminal phase in Sprague-Dawley rat at 4 mg/kg, iv measured after 5 mins to 4 hrs post dose by LC-MS/MS method; assay type: ADME, organism-based; settings: in vivo
[29] = Apparent clearance during terminal phase in Sprague-Dawley rat at 20 mg/kg, po measured after 5 mins to 4 hrs post dose by LC-MS/MS method; assay type: ADME, organism-based; settings: in vivo, read-out: CLz/F (converted)
[30] = tested on: Rattus norvegicus; assay: Apparent clearance during terminal phase in Sprague-Dawley rat at 4 mg/kg, iv measured after 5 mins to 4 hrs post dose by LC-MS/MS method; assay type: ADME, organism-based; settings: in vivo
[31] = Elimination half life in Sprague-Dawley rat at 20 mg/kg, po measured after 5 mins to 4 hrs post dose by LC-MS/MS method; assay type: ADME, organism-based; settings: in vivo, read-out: beta t1/2 (converted)
[32] = Elimination half life in Sprague-Dawley rat at 4 mg/kg, iv measured after 5 mins to 4 hrs post dose by LC-MS/MS method; assay type: ADME, organism-based; settings: in vivo, read-out: beta t1/2 (converted)
[33] = Tmax in Sprague-Dawley rat at 20 mg/kg, po measured after 5 mins to 4 hrs post dose by LC-MS/MS method; assay type: ADME, organism-based; settings: in vivo
[34] = Cmax in Sprague-Dawley rat at 20 mg/kg, po measured after 5 mins to 4 hrs post dose by LC-MS/MS method; assay type: ADME, organism-based; parameters: dose 20 mg/kg, route oral; settings: in vivo
[35] = Oral bioavailability in Sprague-Dawley rat at 20 mg/kg measured after 5 mins to 4 hrs post dose by LC-MS/MS method; assay type: ADME, organism-based; settings: in vivo
[36] = tested on: CAKI-1; assay: Antitumor activity in human Caki1 cells xenografted in nude mouse assessed as inhibition of tumor growth at 20 mg/kg, ig qd for 21 days; assay type: functional; settings: CAKI-1, po, 504 h, read-out: TGI
[37] = tested on: CAKI-1; assay: Antitumor activity in human Caki1 cells xenografted in nude mouse assessed as inhibition of tumor growth at 40 mg/kg, ig qd for 21 days; assay type: functional; settings: CAKI-1, po, 504 h, read-out: TGI
[38] = tested on: CAKI-1; assay: Antitumor activity in human Caki1 cells xenografted in nude mouse assessed as inhibition of tumor growth at 80 mg/kg, ig qd for 21 days; assay type: functional; settings: CAKI-1, po, 504 h, read-out: TGI
[39] = tested on: Mus musculus; assay: Toxicity in human Caki1 cells xenografted nude mouse assessed as drug tolerance at 20 to 80 mg/kg, ig qd for 21 days; assay type: organism-based; settings: in vivo, po, 504 h
[40] = Cmax in Sprague-Dawley rat at 4 mg/kg, iv measured after 5 mins to 4 hrs post dose by LC-MS/MS method; assay type: ADME, organism-based; parameters: dose 4 mg/kg, route intravenous; settings: in vivo

Hepatocyte growth factor receptor, sequence (P08581 whole entry): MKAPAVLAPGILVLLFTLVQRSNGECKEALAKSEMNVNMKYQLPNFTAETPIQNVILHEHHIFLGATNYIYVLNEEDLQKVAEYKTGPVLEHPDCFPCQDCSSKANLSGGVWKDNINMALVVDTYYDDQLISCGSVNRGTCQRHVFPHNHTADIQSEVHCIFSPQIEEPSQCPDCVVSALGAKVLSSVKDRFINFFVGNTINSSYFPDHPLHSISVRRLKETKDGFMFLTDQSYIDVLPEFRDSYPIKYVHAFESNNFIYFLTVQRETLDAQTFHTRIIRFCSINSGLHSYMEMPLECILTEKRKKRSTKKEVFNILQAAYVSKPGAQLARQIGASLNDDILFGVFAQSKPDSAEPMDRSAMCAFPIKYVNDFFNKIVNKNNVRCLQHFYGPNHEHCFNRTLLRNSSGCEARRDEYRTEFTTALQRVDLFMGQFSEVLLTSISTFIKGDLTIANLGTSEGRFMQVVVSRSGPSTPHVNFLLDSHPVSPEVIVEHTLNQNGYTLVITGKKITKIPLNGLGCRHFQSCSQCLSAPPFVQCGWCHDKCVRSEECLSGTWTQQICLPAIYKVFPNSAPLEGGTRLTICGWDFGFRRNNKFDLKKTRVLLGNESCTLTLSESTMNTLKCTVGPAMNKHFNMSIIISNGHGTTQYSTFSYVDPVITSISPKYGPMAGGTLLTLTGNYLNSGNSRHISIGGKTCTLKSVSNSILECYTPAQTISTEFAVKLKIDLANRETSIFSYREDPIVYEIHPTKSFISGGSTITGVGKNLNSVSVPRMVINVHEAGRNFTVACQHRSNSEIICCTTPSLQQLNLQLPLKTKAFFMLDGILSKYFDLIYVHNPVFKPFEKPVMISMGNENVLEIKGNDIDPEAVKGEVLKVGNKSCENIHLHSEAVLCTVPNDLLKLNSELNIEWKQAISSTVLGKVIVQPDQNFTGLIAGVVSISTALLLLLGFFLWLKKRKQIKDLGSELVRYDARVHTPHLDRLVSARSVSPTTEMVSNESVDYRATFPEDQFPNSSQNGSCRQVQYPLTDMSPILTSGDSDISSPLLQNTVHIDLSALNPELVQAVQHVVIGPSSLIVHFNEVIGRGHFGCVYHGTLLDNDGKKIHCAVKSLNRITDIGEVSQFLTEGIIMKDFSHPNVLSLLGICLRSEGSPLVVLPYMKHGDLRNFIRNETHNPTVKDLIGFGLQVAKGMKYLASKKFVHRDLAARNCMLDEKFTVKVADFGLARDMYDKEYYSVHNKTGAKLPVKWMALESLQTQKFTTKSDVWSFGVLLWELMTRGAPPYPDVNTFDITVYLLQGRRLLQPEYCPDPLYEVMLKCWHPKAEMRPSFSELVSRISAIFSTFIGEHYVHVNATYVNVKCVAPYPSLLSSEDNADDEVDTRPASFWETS
Mast/stem cell growth factor receptor Kit, sequence (P10721 whole entry): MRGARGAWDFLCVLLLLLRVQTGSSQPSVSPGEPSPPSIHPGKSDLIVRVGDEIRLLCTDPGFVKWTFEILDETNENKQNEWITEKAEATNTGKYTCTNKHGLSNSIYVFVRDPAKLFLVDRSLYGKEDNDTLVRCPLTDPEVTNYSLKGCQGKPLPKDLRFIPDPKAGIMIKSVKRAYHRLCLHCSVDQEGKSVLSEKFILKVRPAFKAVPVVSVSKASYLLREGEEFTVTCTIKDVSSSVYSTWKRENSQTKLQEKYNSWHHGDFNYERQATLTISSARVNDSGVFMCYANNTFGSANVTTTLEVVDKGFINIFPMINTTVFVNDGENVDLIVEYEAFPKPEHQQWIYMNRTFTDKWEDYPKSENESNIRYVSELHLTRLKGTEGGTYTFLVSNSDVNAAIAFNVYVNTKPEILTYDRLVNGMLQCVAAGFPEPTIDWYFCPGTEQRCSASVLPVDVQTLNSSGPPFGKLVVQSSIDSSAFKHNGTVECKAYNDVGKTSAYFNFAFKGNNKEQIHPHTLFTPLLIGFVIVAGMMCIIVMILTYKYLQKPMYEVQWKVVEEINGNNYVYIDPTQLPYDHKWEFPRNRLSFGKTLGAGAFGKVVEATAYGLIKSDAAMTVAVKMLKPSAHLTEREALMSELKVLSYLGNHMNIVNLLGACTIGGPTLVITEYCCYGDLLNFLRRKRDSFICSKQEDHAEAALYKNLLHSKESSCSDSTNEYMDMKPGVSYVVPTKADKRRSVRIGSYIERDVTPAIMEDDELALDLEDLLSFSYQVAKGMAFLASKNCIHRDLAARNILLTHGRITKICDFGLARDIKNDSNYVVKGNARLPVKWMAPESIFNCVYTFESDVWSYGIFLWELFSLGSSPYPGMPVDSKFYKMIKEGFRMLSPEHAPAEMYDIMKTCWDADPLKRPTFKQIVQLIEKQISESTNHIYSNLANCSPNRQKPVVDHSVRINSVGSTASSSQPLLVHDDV
Voltage-gated inwardly rectifying potassium channel KCNH2, sequence (Q12809 whole entry): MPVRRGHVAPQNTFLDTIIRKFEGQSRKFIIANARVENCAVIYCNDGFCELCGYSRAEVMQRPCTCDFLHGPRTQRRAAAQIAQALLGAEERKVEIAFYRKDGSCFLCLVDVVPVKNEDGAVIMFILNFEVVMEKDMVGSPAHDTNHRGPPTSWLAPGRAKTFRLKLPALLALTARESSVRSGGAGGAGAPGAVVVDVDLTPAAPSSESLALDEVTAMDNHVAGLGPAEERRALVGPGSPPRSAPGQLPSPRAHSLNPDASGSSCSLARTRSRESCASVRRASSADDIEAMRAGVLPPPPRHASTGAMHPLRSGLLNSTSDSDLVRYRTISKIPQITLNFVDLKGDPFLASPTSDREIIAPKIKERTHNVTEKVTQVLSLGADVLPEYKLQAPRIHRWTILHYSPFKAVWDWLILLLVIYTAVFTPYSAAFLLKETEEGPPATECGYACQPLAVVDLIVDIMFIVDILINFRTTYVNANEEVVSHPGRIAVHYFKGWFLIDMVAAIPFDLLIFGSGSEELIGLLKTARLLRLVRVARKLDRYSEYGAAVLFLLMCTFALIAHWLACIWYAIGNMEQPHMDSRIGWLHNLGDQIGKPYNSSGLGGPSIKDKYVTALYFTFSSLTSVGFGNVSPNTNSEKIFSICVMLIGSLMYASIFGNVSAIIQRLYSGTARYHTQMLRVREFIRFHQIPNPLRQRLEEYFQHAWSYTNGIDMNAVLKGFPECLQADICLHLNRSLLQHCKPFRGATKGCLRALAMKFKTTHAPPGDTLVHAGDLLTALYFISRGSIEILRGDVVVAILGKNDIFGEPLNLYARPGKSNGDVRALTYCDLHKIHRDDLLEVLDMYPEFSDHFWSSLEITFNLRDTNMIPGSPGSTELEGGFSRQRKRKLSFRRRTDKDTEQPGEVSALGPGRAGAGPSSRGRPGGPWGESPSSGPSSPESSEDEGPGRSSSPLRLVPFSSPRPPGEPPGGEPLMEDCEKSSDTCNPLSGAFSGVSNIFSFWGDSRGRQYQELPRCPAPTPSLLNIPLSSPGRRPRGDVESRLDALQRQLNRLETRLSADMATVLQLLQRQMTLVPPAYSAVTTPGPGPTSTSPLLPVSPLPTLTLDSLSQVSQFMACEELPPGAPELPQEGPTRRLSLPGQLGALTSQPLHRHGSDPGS
Proto-oncogene tyrosine-protein kinase receptor Ret, sequence (P07949 whole entry): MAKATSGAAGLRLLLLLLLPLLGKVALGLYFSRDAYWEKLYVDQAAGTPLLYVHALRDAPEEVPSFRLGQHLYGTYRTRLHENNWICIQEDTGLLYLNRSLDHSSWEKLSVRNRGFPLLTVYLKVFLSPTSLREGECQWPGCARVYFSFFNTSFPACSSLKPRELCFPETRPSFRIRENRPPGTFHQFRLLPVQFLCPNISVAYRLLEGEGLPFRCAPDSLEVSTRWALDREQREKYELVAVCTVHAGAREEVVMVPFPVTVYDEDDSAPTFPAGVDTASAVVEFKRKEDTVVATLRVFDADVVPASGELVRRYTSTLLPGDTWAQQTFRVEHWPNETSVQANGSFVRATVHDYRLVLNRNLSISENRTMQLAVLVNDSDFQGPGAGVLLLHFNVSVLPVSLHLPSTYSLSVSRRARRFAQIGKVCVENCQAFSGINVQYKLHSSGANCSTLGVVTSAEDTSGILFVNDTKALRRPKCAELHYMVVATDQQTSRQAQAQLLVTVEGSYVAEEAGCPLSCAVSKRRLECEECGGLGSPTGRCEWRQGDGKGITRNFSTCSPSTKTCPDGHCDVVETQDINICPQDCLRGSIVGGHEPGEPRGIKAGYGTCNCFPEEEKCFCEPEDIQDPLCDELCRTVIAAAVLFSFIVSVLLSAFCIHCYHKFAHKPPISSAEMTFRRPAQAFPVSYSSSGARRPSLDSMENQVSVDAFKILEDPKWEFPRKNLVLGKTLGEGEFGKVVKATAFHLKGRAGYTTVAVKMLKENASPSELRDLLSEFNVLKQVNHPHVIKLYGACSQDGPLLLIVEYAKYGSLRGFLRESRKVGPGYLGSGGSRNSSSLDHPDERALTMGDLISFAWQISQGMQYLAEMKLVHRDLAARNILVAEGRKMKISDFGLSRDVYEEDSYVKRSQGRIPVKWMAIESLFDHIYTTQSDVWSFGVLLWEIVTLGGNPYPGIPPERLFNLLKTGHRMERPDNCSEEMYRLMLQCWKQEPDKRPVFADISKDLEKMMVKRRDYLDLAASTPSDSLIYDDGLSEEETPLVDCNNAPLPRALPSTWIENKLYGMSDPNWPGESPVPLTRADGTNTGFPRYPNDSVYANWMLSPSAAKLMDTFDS

With `COc1cc2c(cc1OC)Nc1ncnc(Oc3ccc(NC(=O)C4(C(=O)Nc5ccc(F)cc5)CC4)cc3)c1NC2` the IC50 [1] was 7120 nM, the IC50 [2] was 5340 nM and the IC50 [3] was 4910 nM. For the same compound, the IC50 [4] was 1470 nM.
For `COc1cc2c(cc1OC)Nc1ncnc(Oc3ccc(NC(=O)C4(C(=O)Nc5ccc(F)cc5)CC4)cc3F)c1NC2`, the IC50 [5] was 24.4 nM, the IC50 [1] was 4100 nM and the IC50 [2] was 1860 nM. The IC50 [3] was 2950 nM, the IC50 [4] was 748 nM and the IC50 [6] was 62.5 nM. It also gave an IC50 [7] of 268 nM, an IC50 [8] of 163 nM and an IC50 [9] of 259 nM. The IC50 [10] was 852 nM, the Activity [11] was “Non-Toxic” and the Activity [12] was “Non-Toxic”. The Activity [13] was “Non-Toxic”, the survival at 336 h [14] was 40% and the survival at 336 h [15] was 60%. The survival at 336 h [16] was 80%, the survival at 336 h [17] was 100% and the survival at 336 h [18] was 100%. The survival at 336 h [19] was 100%, the IC50 [20] was > 40000 nM and the AUC(0-t) [21] was 6990 ng·h/mL. The AUC(0-t) [22] was 3590 ng·h/mL, the AUC(0-inf) [23] was 7080 ng·h/mL and the AUC(0-inf) [24] was 3590 ng·h/mL. The MRT last [25] was 2.36 h, the MRT last [26] was 1 h and the Vd/F [27] was 4.52 L/kg. It also gave a Vz/F [28] of 1.48 L/kg, a CL/F [29] of 48.8 mL/min/kg and a CLz/F [30] of 19 mL/min/kg. The half-life [31] was 1.09 h, the half-life [32] was 0.91 h and the Tmax [33] was 1.67 h. The Cmax [34] was 1930 ng/mL, the bioavailability [35] was 39% and the inhibition in vivo at 20 mg/kg [36] was 51.1%. For the same compound, the inhibition in vivo at 40 mg/kg [37] was 58.9%, the inhibition in vivo at 80 mg/kg [38] was 64.5% and the Activity [39] was “Non-Toxic”. For the same compound, the Cmax [40] was 4660 ng/mL.
In the case of `COc1cc2c(cc1OC)Nc1ncnc(Oc3ccc(NC(=O)C4(C(=O)Nc5ccc(F)cc5)CC4)cc3F)c1N(C)C2`, the IC50 [5] is reported as > 1000 nM.
For `Cc1nc(Oc2ccc(NC(=O)C3(C(=O)Nc4ccc(F)cc4)CC3)cc2)c2c(n1)Oc1ccccc1CN2`, the IC50 [5] was > 1000 nM.
For `COc1cc2c(cc1OC)Nc1nccc(Oc3ccc(NC(=O)C4(C(=O)Nc5ccc(F)cc5)CC4)cc3F)c1NC2`, the IC50 [5] was > 1000 nM.
With `COc1cc2c(cc1OC)C(=O)Nc1c(Oc3ccc(NC(=O)C4(C(=O)Nc5ccc(F)cc5)CC4)cc3F)ccnc1N2` the IC50 [5] was > 1000 nM.
For `COc1cc2c(cc1OC)C(=O)Nc1c(ncnc1Oc1ccc(NC(=O)C3(C(=O)Nc4ccc(F)cc4)CC3)cc1F)N2`, the IC50 [5] was > 1000 nM.
In the case of `COc1ccc2c(c1)CNc1c(nc(C)nc1Oc1ccc(NC(=O)C3(C(=O)Nc4ccc(F)cc4)CC3)cc1)N2`, the IC50 [5] is reported as > 1000 nM.
For `Cc1nc(Oc2ccc(NC(=O)C3(C(=O)Nc4ccc(F)cc4)CC3)cc2)c2c(n1)Oc1ccccc1C=N2`, the IC50 [5] was > 1000 nM.
In the case of `COc1cc2c(cc1OC)Oc1ncnc(Oc3ccc(NC(=O)C4(C(=O)Nc5ccc(F)cc5)CC4)cc3)c1N=C2`, the IC50 [5] is reported as > 1000 nM.
